We go through one compound from US8921268B2, “Herbicidal composition” (Sumitomo Chemical Company, Limited, priority 2012, dated 2014).

One test has as its system Ipomoea hederacea. Nature of the test: Pre-emergence soil spray pot test, herbicidal activity (Example 2). The format is in vivo. As to conditions: scale 0 to 100; 20 g/ha; soil spray on day of sowing; ten days after spray treatment; greenhouse. As to the method: (§1) Ipomoea hederacea was sowed on a plastic pot filled with a soil. Following the sowing, on the day of the sowing, a mixed liquid of flumioxazin, isoxaflutole, and cyprosulfamide was sprayed uniformly so that the amounts of the agents might become those shown in Table 2 in a sprayed water amount of 500 L/ha. The mixed liquid of flumioxazin, isoxaflutole, and cyprosulfamide was prepared by dissolving the respective compounds in prescribed amounts separately in acetone containing 2% (w/v) of Tween 20 (surfactant, produced by Tokyo Chemical Industry Co., Ltd.), diluting the respective solutions with water and then combining them, followed by dilution with water so that the final acetone concentration of the spray liquid might be 10% by volume. After the spray treatment, the pot was carried into a greenhouse. Ten days after the spray treatment, the herbicidal activity to Ipomoea hederacea was evaluated.

For a further test, the system named is Echinochloa crus-galli. Nature of the test: Pre-emergence soil spray pot test, herbicidal activity (Example 3). The format is in vivo. As to conditions: scale 0 to 100; 2 g/ha; soil spray on day of sowing; twenty days after spray treatment; greenhouse. The protocol:
as §1, with “Echinochloa crus-galli was” for “Ipomoea hederacea was”, “Table 3” for “Table 2”, “greenhouse. Twenty” for “greenhouse. Ten”, “to Echinochloa crus-galli” for “to Ipomoea hederacea”

With `C#CCN1C(=O)COc2cc(F)c(N3C(=O)C4=C(CCCC4)C3=O)cc21` [Flumioxazin], the “Herbicidal activity Ipomoea hederacea” value in the test with Ipomoea hederacea is recorded as 80. Moreover, the “Herbicidal activity Echinochloa crus-galli” value in the test on Echinochloa crus-galli is on record as 10.
